From ChEMBL document CHEMBL1201862, “PubChem BioAssay data set” (2004) come the findings set out here.

Some test systems named below: A498; A549; CAKI-1; DMS-114; DMS-273; HCT-15; KM-20L2; LXFL 529; M19-MEL; NCI-H226; OVCAR-4; SK-MEL-28; SK-MEL-2; SNB-19; SNB-78; XF498; DU-145; MDA-MB-231; NCI/ADR-RES; PC-3.
What all share (assay): DTP human tumour cell line panel, 48 h

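1) Cells in 96-well plates. 2) Compound, 48 h, 5 concentrations. 3) Linear interpolation between surrounding doses. 4) Unreached endpoint = highest concentration. Here, GI50 denotes the concentration required for 50% inhibition of growth.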 Calls of active or inactive are those of the source. No stated cut-off is given here; in the data, active = GI50 up to about 1.1 µM and inactive = higher.

For `COc1ccc(C2C3C(=O)C=CC(=O)C3[C@@H]2C)cc1OC` (stereo partly drawn), the GI50 (in general, the concentration that inhibits growth by half) in the experiment on A498 is > 100 µM (inactive); with A549 it was > 100 µM (inactive); in the experiment on CAKI-1 it was > 100 µM (inactive); with DMS-114, 56.5 µM (inactive); with DMS-273 it was 61.4 µM (inactive); in the experiment on HCT-15, 23.6 µM. Also, the GI50 is > 100 µM (inactive) in the experiment with KM-20L2; 42.4 µM (inactive) in the experiment with LXFL 529; > 100 µM (inactive) in the experiment on M19-MEL; 81.7 µM (inactive) in the experiment on NCI-H226; > 100 µM (inactive) with OVCAR-4; > 100 µM (inactive) in the experiment on SK-MEL-28. Besides, the GI50 in the experiment with SK-MEL-2 was > 100 µM (inactive); in the experiment with SNB-19 it was 12.2 µM (inactive); with SNB-78, > 100 µM (inactive); in the experiment on XF498 it was 56.1 µM (inactive).

For the molecule `CN(C)CC1CCCC1=O` (stereo not drawn), the GI50 in the experiment on A498 is 10.5 µM (inactive); in the experiment with A549 it was 24 µM (inactive); in the experiment with CAKI-1 it was 0.139 µM (active); with DMS-114, 1.08 µM (active); in the experiment on DMS-273, 1.55 µM (inactive); with DU-145 it was 17.5 µM (inactive). Moreover, the GI50 was 0.378 µM with HCT-15; 1.67 µM (inactive) in the experiment with KM-20L2; 0.41 µM (active) in the experiment on LXFL 529; 0.857 µM (active) in the experiment with M19-MEL; 2.64 µM (inactive) in the experiment with MDA-MB-231; 14.4 µM (inactive) in the experiment with NCI-H226. Besides, the GI50 was 20.7 µM (inactive) in the experiment with NCI/ADR-RES; 1.97 µM (inactive) in the experiment with OVCAR-4; 8.09 µM (inactive) with PC-3; 2.98 µM (inactive) in the experiment on SK-MEL-28; 5.21 µM (inactive) in the experiment with SK-MEL-2; 31 µM (inactive) with SNB-19. The GI50 in the experiment on SNB-78 was 2.48 µM (inactive); in the experiment with XF498, 0.687 µM (active).

For the molecule `COc1ccc(OC)c(/C=C/NC=O)c1`, the GI50 in the experiment with A498, with A549, with CAKI-1, in the experiment with DMS-114, with DMS-273 and in the experiment with DU-145 was > 100 µM (inactive) each time. The GI50 was over 100 µM in the experiment on HCT-15; > 100 µM (inactive) with KM-20L2; > 100 µM (inactive) with LXFL 529; > 100 µM (inactive) with M19-MEL; > 100 µM (inactive) in the experiment with NCI-H226; > 100 µM (inactive) with OVCAR-4. Moreover, the GI50 in the experiment on PC-3, with SK-MEL-28, in the experiment with SK-MEL-2, with SNB-19, in the experiment with SNB-78 and in the experiment on XF498 was > 100 µM (inactive) each time.

Turning to `Cc1ccccc1N1C(=O)C2C=CC(n3[nH]c(=O)n(Cc4ccccc4)c3=O)CC2C1=O` (stereo not drawn), the GI50 in the experiment on A498 was > 100 µM (inactive); in the experiment with A549 it was > 100 µM (inactive); in the experiment with CAKI-1, > 100 µM (inactive); with DMS-114, > 100 µM (inactive); with DMS-273 it was > 100 µM (inactive); in the experiment on HCT-15, over 100 µM. Further, the GI50 with KM-20L2, in the experiment on LXFL 529, in the experiment on M19-MEL, in the experiment on NCI-H226, in the experiment with SK-MEL-28 and with SK-MEL-2 was > 100 µM (inactive) each time. The GI50 in the experiment on SNB-19, in the experiment on SNB-78 and with XF498 was > 100 µM (inactive) in each case.

As for `COc1cc(C2C(C(=O)NCc3ccccc3)=C(C)NC(C)=C2C(=O)NCc2ccccc2)ccc1O`, the GI50 is 84.9 µM (inactive) in the experiment on A498; 77.4 µM (inactive) in the experiment on A549; 24.9 µM (inactive) in the experiment on CAKI-1; 39.4 µM (inactive) with DMS-114; 29.4 µM (inactive) with DMS-273; 27.6 µM in the experiment with HCT-15. Further, the GI50 with KM-20L2 was 33.2 µM (inactive); in the experiment with LXFL 529, 28.6 µM (inactive); in the experiment with M19-MEL, 39.4 µM (inactive); with NCI-H226, 37.9 µM (inactive); in the experiment on OVCAR-4 it was 40.1 µM (inactive); with SK-MEL-28 it was 34.5 µM (inactive). Besides, the GI50 with SK-MEL-2 is 22.3 µM (inactive); with SNB-19, 29.9 µM (inactive); in the experiment on SNB-78, 32.8 µM (inactive); in the experiment on XF498, 61.5 µM (inactive).

Consider `O=C1NC2OCC(O)C(O1)C2O` (stereo not drawn), for which the GI50 with A498 was > 100 µM (inactive); with CAKI-1 it was > 100 µM (inactive); in the experiment on DMS-114 it was > 100 µM (inactive); in the experiment on DMS-273, > 100 µM (inactive); in the experiment with HCT-15, over 100 µM; in the experiment on KM-20L2, > 100 µM (inactive). Further, the GI50 in the experiment on LXFL 529, in the experiment on M19-MEL, in the experiment on NCI-H226, in the experiment with OVCAR-4, with SK-MEL-28 and in the experiment with SK-MEL-2 was > 100 µM (inactive) each time. The GI50 with SNB-19, with SNB-78 and in the experiment on XF498 was > 100 µM (inactive) each time.

Turning to `C=C1CCC2[C@@H](CCC3[C@]2(C)CCC[C@]3(C)C(=O)OC)C1CCO` (stereo partly drawn), the GI50 in the experiment with A498 was 15.8 µM (inactive); with A549 it was 14.4 µM (inactive); in the experiment with CAKI-1, 12.1 µM (inactive); in the experiment with DMS-114, 5.11 µM (inactive); in the experiment with DMS-273 it was 10.5 µM (inactive); with HCT-15, 11.2 µM. For the same molecule, the GI50 in the experiment on KM-20L2 is 9.66 µM (inactive); in the experiment with LXFL 529, 8.89 µM (inactive); with M19-MEL, 15 µM (inactive); in the experiment with NCI-H226 it was 14.4 µM (inactive); in the experiment on OVCAR-4, 12.8 µM (inactive); in the experiment with SK-MEL-28 it was 13.9 µM (inactive). The GI50 with SK-MEL-2 is 15.1 µM (inactive); in the experiment with SNB-19, 14 µM (inactive); with SNB-78, 16.3 µM (inactive); with XF498, 10.2 µM (inactive).

In the case of `CCCCc1c2cnccc2c(CCCC)c2c1[nH]c1ccccc12`, the GI50 in the experiment on A498 was 15.5 µM (inactive); with A549, 12.1 µM (inactive); with CAKI-1 it was 5.9 µM (inactive); in the experiment with DMS-114, 3.99 µM (inactive); with DMS-273 it was 10.7 µM (inactive); with HCT-15, 6.84 µM. Also, the GI50 was 13.6 µM (inactive) in the experiment on KM-20L2; 11.4 µM (inactive) with LXFL 529; 12.4 µM (inactive) in the experiment with M19-MEL; 15.7 µM (inactive) with NCI-H226; 8.99 µM (inactive) in the experiment with OVCAR-4; 6.34 µM (inactive) in the experiment on SK-MEL-28. Besides, the GI50 was 12.6 µM (inactive) in the experiment on SK-MEL-2, 7.19 µM (inactive) in the experiment on SNB-19, 25.2 µM (inactive) with SNB-78 and 5.19 µM (inactive) in the experiment with XF498.

`COc1c2c(nc3ccccc13)-c1cc3c(c(=O)n1C2)COC(=O)C3(O)CC(=O)N1CCOCC1` (stereo not drawn): the GI50 in the experiment with A498 is 13.2 µM (inactive); with A549 it was 10.5 µM (inactive); with CAKI-1, 3.79 µM (inactive); with DMS-114, 0.664 µM (active); in the experiment on DMS-273, 1.11 µM (active); in the experiment with DU-145 it was 3.3 µM (inactive). Moreover, the GI50 in the experiment on HCT-15 is 41.4 µM; with KM-20L2, 15.4 µM (inactive); with LXFL 529 it was 13.9 µM (inactive); in the experiment on M19-MEL, 5.58 µM (inactive); with MDA-MB-231, 69.7 µM (inactive); with NCI-H226, 6 µM (inactive). The GI50 in the experiment on OVCAR-4 is 46.1 µM (inactive); in the experiment with PC-3 it was 21.1 µM (inactive); with SK-MEL-28, 17 µM (inactive); in the experiment on SK-MEL-2, 26.8 µM (inactive); with SNB-19, 1.27 µM (inactive); with SNB-78, 32.4 µM (inactive). Moreover, the GI50 with XF498 is 7.96 µM (inactive).

As for `C[C@]12CC[C@H](OC3CCCCO3)CC1=CC[C@@H]1C2CC[C@]2(C)/C(=N/OCCC#N)CCC12` (stereo partly drawn), the GI50 is > 100 µM (inactive) in the experiment on A498; 26.8 µM (inactive) with A549; 45.8 µM (inactive) in the experiment with CAKI-1; 4.76 µM (inactive) in the experiment with DMS-114; 76.7 µM (inactive) with DMS-273; over 100 µM with HCT-15. Also, the GI50 in the experiment on KM-20L2 was 3.78 µM (inactive); with LXFL 529, 17.7 µM (inactive); in the experiment with M19-MEL it was > 100 µM (inactive); in the experiment with OVCAR-4, 18.9 µM (inactive); with SK-MEL-28, > 100 µM (inactive); in the experiment with SK-MEL-2, 56.2 µM (inactive). The GI50 is 30.7 µM (inactive) with SNB-19, 21.9 µM (inactive) with SNB-78 and 4.62 µM (inactive) with XF498.

As for `CCOc1ccc(NC(=O)C(=O)CC(=O)c2c(C)[n+]([O-])c3ccccc3[n+]2[O-])cc1`, the GI50 in the experiment with A498 is > 100 µM (inactive); in the experiment on A549 it was > 100 µM (inactive); in the experiment with CAKI-1 it was > 100 µM (inactive); with DMS-114 it was > 100 µM (inactive); in the experiment with DMS-273 it was > 100 µM (inactive); in the experiment with HCT-15, over 100 µM. The GI50 with KM-20L2, in the experiment with LXFL 529, in the experiment with M19-MEL, in the experiment with NCI-H226, in the experiment with OVCAR-4 and in the experiment with SK-MEL-28 was > 100 µM (inactive) each time. Moreover, the GI50 was > 100 µM (inactive) in the experiment on SK-MEL-2, > 100 µM (inactive) with SNB-19, > 100 µM (inactive) in the experiment with SNB-78 and 59.8 µM (inactive) in the experiment on XF498.

As for `N#CC1(c2nc3ccccc3o2)C(=O)C(=O)N(C2C3CC4CC(C3)CC2C4)C(=O)C1=O` (stereo not drawn), the GI50 in the experiment with A498 was > 100 µM (inactive); in the experiment on A549, > 100 µM (inactive); in the experiment with CAKI-1, > 100 µM (inactive); in the experiment with DMS-114, > 100 µM (inactive); in the experiment on DMS-273 it was > 100 µM (inactive); in the experiment on HCT-15, over 100 µM. In addition, the GI50 in the experiment on KM-20L2, in the experiment on LXFL 529, with M19-MEL, in the experiment with NCI-H226, in the experiment on OVCAR-4 and in the experiment on SK-MEL-28 was > 100 µM (inactive) in each case. Further, the GI50 in the experiment with SK-MEL-2, in the experiment on SNB-19, in the experiment with SNB-78 and in the experiment on XF498 was > 100 µM (inactive) in each case.
